Source: US20250282742A1, “BENZOFURAN DERIVATIVES FOR TARGETING AUTOPHAGY” (Automera PTE. LTD, priority 2024, published 2025)

What was measured:
Recombinant p62 protein = target: T1, Recombinant p62 protein (Homo sapiens, UniProt Q13501); experiment: Surface plasmon resonance (SPR) compound binding to immobilised p62; conditions: recombinant p62, 15° C
T1 construct: Recombinant p62 protein was buffer exchanged into Biacore SPR running buffer
Protocol: Example 28: Surface Plasmon Resonance (SPR) Analysis
Recombinant p62 protein was buffer exchanged into Biacore SPR running buffer (Cytiva 100671) using the Slide-A-Lyzer Mini Dialysis system 7K MWCO (Thermo Fisher Scientific, Cat no. 69560). The final protein concentration was determined using the Nanodrop One spectrophotometer (Thermo Fisher Scientific, cat no. ND-ONE-W), with calibration for the dialysis buffer.
The prepared protein was diluted in sodium acetate buffer (NaAc, pH 5.5, Cytiva) to concentrations ranging from approximately 0.25-40 μg/mL. Post-immobilization, the protein required approximately 16 hours of equilibration in running buffer supplemented with 1% DMSO at 15° C. to ensure adequate surface equilibration and protein reorganization.
All SPR experiments were conducted at a constant temperature of 15° C. The SPR chip surface was activated using EDC/NHS for a contact time of 6-10 min at a flow rate of 10 μL/min. This was followed by protein immobilization for 2100 seconds and ethanolamine capping for 420 seconds, both at the same flow rate. Immediately after immobilization, the NH2—REEE peptide was analyzed in Single Cycle Kinetics mode (SCK) to verify surface activity, ensuring it binds the sample with the published affinity (−20 μM by SPR).
For general compound binding studies, experiments were performed at 15° C. using a running buffer composed of 10 mM HEPES, 150 mM NaCl, 1 mM DTT, 0.05% Tween 20, and 1% DMSO at pH 7.4. The test compound was initially prepared at a 20 mM concentration in DMSO and subsequently titrated in 2-fold dilutions. For each assay, 2 μL of the compound was mixed with 198 μL of the running buffer, and the mixture was thoroughly pipetted approximately 15 times for homogenization.
A series of blank injections (0 μM concentration) were included for double referencing, with at least 8 or 16 per plate depending on the format. Typical injection parameters were 120 seconds for association and 180 seconds for dissociation at a flow rate of […]. A four-point solvent correction was prepared with DMSO concentrations ranging from 2% to 0.5% in the buffer. Post each compound injection, the system's needles were washed with 50% DMSO.
Analysis of the SPR data was conducted using the Cytiva Evaluation software. The binding levels at the late time-point of each interaction were corrected for reference, then normalized to percentage bound values to account for variations in immobilization levels, protein molecular weight, and compound molecular weight.
Compound binding studies were carried out according to experimental procedures above and SPR % occupancy was determined and summarized in Table 7.

[1] = tested on: LC3 protein (LC3-II/LC3-I) in HeLa cells; experiment: LC3 lipidation assay (LC3-II/LC3-I, Western blot, 24 h treatment); format: cell-based; conditions: fold change in LC3-II/LC3-I relative to DMSO control
Protocol: (§1) HeLa cells were seeded in 6-well plates (700,000 cells) and allowed to adhere overnight. Media was replaced one hour before administering either vehicle (DMSO) or test compounds. After 24 hours of treatment, the media was discarded, and cells were rinsed once with ice-cold 1×PBS before detached from plates with ice-cold RIPA Lysis and Extraction Buffer (Thermo Fisher Scientific) which was supplemented with protease and phosphatase inhibitors. The resulting cell suspensions were transferred to pre-chilled microcentrifuge tubes, incubated on ice for 20 min with intermittent mixing and then centrifuged at 12,000 rpm for 20 min at 4° C. The supernatants were then aspirated slowly and transferred into new tubes kept on ice. The protein concentration in the samples was determined using BCA kit (Thermo Fisher Scientific) as per manufacturer's instructions.
(§2) For the p62 oligomerization and LC3 lipidation assays, cell lysates were prepared using RIPA buffer supplemented with 2% SDS and benzonase (Sigma). The lysates were then combined with 4× Laemmli protein sample buffer (Bio-Rad), heated at 70° C. for 10 min and subjected to a brief centrifugation of 10-15 seconds.
(§3) For p62 oligomerization and LC3 lipidation assays, lysates containing 30 μg of protein and for BRD4 and FKBP12(F36V) degradation assays, lysates containing 20 μg of protein, were loaded slowly into the wells of 4-20% gradient Tris-glycine gels (Bio-Rad). The gels were run at 100V until completion and transferred onto PVDF membranes. Membranes were blocked using 5% milk in TBS-Tween (0.1%) buffer at room temperature for 1 hour. The membranes were incubated with primary antibody in 5% milk-TBST with shaking, overnight at 4° C. The primary antibodies used were: p62 (Novus Biologicals 2C11, H00008878-MO1), LC3A/B (Cell Signalling Technology D3U4C, 12741S), FKBP12 (Abcam ab24373), BRD4 (Cell Signalling Technology E2A7X, 13440S), GAPDH (Cell Signalling Technology D4C6R, 97166S), and β-Actin (Proteintech 66009-1-Ig). Following primary antibody incubation, membranes were washed thrice with TBST 10 min before and after incubation with secondary-HRP conjugated antibody in 5% milk-TBST for 1 hour at room temperature. The secondary antibodies used were: Anti-Mouse IgG HRP Conjugate (Promega W4021B) and Anti-Rabbit IgG HRP Conjugate (Promega W4011B). For the p62 oligomerization assay, the total protein levels were assessed using Ponceau staining (Thermo Fisher Scientific) of PVDF membrane as per recommendation by manufacturer's guidelines.
(§4) Imaging was acquired using SuperSignal™ West Pico PLUS Chemiluminescent Substrate (Thermo Fisher Scientific) with iBright Invitrogen FL100 imaging system. Band signal intensity, reflective of protein concentrations, were quantified using Invitrogen™ iBright™ Analysis and Image J software.
HeLa cells were treated with compounds for 24 hours to evaluate the effect of these compounds on LC3-II/LC3-I levels, a measure of autophagy activation. The changes in levels of LC3-I, LC3-II and β-Actin (loading control) were assessed by Western blotting, as described in experimental procedures. The fold increase of LC3-II/LC3-I levels induced by compound treatment relative to vehicle control (DMSO) was determined and summarized in Table 9. Specifically, FIGS. 3A-C show Western blot images and their corresponding quantification showing the lipidation levels of LC3 protein (LC3-II/LC3-I) by 24 hours compound treatments at listed concentrations, relative to vehicle control (DMSO) in HeLa cells.

[2] = tested on: p62 oligomers in HeLa cells; experiment: p62 oligomerization assay (Western blot, 24 h treatment); format: cell-based; conditions: fold change of p62 oligomer levels relative to DMSO control
Protocol: as §1, §2, §3, §4
HeLa cells were treated with compounds for 24 hours to evaluate the effect of these compounds on p62 oligomerisation activity. The resulting changes in levels of p62 oligomers were assessed by Western blotting, as described in experimental procedures. The fold change of p62 oligomer levels induced by compound treatment relative to vehicle control (DMSO) was determined and summarized in Table 8. Specifically, FIGS. 2A-C show Western blot images and their corresponding quantification showing the levels of high molecular weight (100-200 kDa) p62 oligomers by 24 hours compound treatments at listed concentrations, relative to vehicle control (DMSO) in HeLa cells. Protein loading consistencies was assessed by Ponceau staining (not shown).

T1 sequence (Q13501 whole entry, species assumed): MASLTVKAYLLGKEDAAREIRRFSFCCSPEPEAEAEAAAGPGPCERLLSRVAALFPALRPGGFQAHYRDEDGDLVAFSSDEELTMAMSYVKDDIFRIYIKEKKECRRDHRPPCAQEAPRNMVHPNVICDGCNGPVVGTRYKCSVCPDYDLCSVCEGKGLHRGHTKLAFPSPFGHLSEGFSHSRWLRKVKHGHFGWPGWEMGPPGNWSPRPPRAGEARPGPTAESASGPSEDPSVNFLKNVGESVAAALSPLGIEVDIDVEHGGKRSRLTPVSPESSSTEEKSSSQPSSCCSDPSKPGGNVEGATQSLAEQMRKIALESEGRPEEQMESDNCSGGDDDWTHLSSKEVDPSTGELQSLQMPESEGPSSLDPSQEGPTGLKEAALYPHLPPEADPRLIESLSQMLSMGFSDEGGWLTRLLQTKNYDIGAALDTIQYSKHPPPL

Structure (SMILES)	receptor occupancy at 100 µM (Recombinant p62 protein)	LC3 lipidation [1]	p62 oligomerization [2]
OCCNCc1ccc2cc(CCc3ccc(F)cc3)oc2c1 [Compound 49, 2-(((2-(4-fluorophenethyl)benzofuran-6-yl)methyl)amino)ethan-1-ol]	30 to 70%	+ (< 2-fold change in LC3-II/LC3-I relative to DMSO control)	++ (> 2-fold change relative to DMSO control)
Cc1c(Cc2ccccc2)oc2cc(CNCCO)ccc12 [Compound 42, 2-(((2-benzyl-3-methylbenzofuran-6-yl)methyl)amino)ethan-1-ol]	30 to 70%	+ (< 2-fold change in LC3-II/LC3-I relative to DMSO control)	+ (< 2-fold change relative to DMSO control)
OCCNCc1ccc2cc(-c3ccccc3)oc2c1 [Compound 2, 2-(((2-phenylbenzofuran-6-yl)methyl)amino)ethan-1-ol]	30 to 70%	++ (> 2-fold change in LC3-II/LC3-I relative to DMSO control)	++ (> 2-fold change relative to DMSO control)
OCCNCc1ccc2cc(Cc3ccc(F)cc3)oc2c1 [compound 12]	> 70%	+ (< 2-fold change in LC3-II/LC3-I relative to DMSO control)	++ (> 2-fold change relative to DMSO control)
OCCNCc1ccc2cc(Cc3ccccc3)oc2c1 [compound 1]	< 30%	+ (< 2-fold change in LC3-II/LC3-I relative to DMSO control)	+ (< 2-fold change relative to DMSO control)
OCCNCc1ccc2cc(Cc3ccc(Cl)cc3)oc2c1 [Compound 13, 2-(((2-(4-chlorobenzyl)benzofuran-6-yl)methyl)amino)ethan-1-ol]	> 70%	++ (> 2-fold change in LC3-II/LC3-I relative to DMSO control)	++ (> 2-fold change relative to DMSO control)
